From patent US20220160703A1, “TUMOR-SELECTIVE COMBINATION THERAPY” (The Board of Regents of The University of Texas System, priority 2019, published 2022)

Columns and labels:
[1] = tested on: CD8 T cells; assay: Direct effect on CD8 T cells (apoptosis, proliferation, IFNγ); format: cell-based, mice; settings: tumor lethal dose of β-lap
Experimental: FIGS. 23A-D. IB-DNQ-mediated antitumor effect influences tumor microenvironment. 6×10^5 MC38 cells were subcutaneously transplanted into C57BL/6 mice (n=3/group). Tumor-bearing mice were treated with IB-DNQ (12 mg/kg, i.t.) or vehicle every other day for four times after tumor volumes reached to 50 mm^3. Tumors were collected 24 h later after the last IB-DNQ injection. (FIG. 23A) Flow cytometry analysis of tumor-infiltrating immune cells from vehicle and IB-DNQ treated tumors. (FIG. 23B) Quantification of immune populations from vehicle and IB-DNQ treated tumors. (FIG. 23C) T cell proliferation in the presence/absence of IB-DNQ. CFSE labeled splenocytes were treated with lethal dose IB-DNQ for 4 h followed by washing and stimulation with anti-CD3 (1 μg/ml) and anti-CD28 (2 μg/ml) for 48 h, proliferative CD8 T cells were then analyzed by flow cytometry assay. (FIG. 23D) Effect of IB-DNQ on T cells. […] 24 h later, cell death was analyzed by flow cytometry. […]
I3-Lap-induced-antitumor effect depends on dendritic cell-mediated T cell cross-priming. […] To rule out of direct effect of β-lap on CD8 T cells, the inventors evaluated the expression of NQO1 on CD8 T cells and the effect of β-lap on CD8 T cell survival, proliferation and function. […] IFNγ secretion was measured to evaluate the capability of DCs to prime the antigen specific T cells.

[2] = tested on: HMGB1; assay: HMGB1 release detection (ELISA); format: cell-based, murine; settings: NQO1+ tumor cells (MC38, TC-1, NQO1-overexpressing B16), β-lap 3 hr, 24 hr later
Experimental: FIGS. 5A-F. β-Lap treatment-induced HMGB1 release enhances tumor immunogenicity and triggers antitumor T cell immunity in vivo. (FIG. 5A) MC38, TC-1 and B16 (NQO null and overexpression clones) were treated with β-lap for 3 hr followed by washing and replacing medium. The level of HMGB1 released into the culture supernatant was determined by ELISA 24 hr later. (FIG. 5B) The research schema for in vivo cross-presentation of tumor specific antigen from β-lap-induced dying tumor cells in FIG. 5C and FIG. 5D. (FIGS. 5C-D) Live or β-lap-induced dying MC38-OVA cells were subcutaneously inoculated into the flank of WT or Tlr4^−/− C57BL/6 (n=3-4/group) mice along with or without anti-HMGB1 antibody. […] IFNγ producing cells were determined by ELISPOTs assay (FIG. 5C), and IFNγ secretion level was quantified by CBA mouse IFNγ assay (FIG. 5D). […] Data are shown as mean±SEM from at least two to three independent experiments. *P<0.05, **P<0.01, and ***P<0.001 determined by two-way ANOVA (FIG. 5C and FIG. 5D) or log-rank test (FIG. 5F).
FIGS. 25A-E. IB-DNQ induces tumor ICD and dendritic cell-mediated T cell cross-priming. […] MC38, MC38 NOQ1^−/−, B16, and B16 NOQ1^+ cells were treated with IB-DNQ for 4 h followed by replacing medium and growth for 24 h, culture supernatant was collected and HMGB1 levels were determined by ELISA. […]

CC1(C)CCC2=C(O1)c1ccccc1C(=O)C2=O [β-lap, β-lapachone]
CD8 T cell apoptosis, anti-CD3/CD28 stimulated proliferation and IFNγ production [1]: no effect
HMGB1 secretion [2]: dose-dependent secretion of HMGB1
